According to ChEMBL document CHEMBL1151468, “Selection of SHV extended-spectrum-beta-lactamase-dependent cefotaxime and ceftazidime resistance in Klebsiella pneumoniae requires a plasmid-borne blaSHV gene” (2008):
≈ marks a conversion by molar mass, not a printed value. Calls of active or inactive are those of the source. The rule behind the calls is not given here.

Columns and labels:
Klebsiella pneumoniae [1] = test: Antibacterial activity against ESBL-negative Klebsiella pneumoniae isolate 113 at 1 ug/ml by Etest; format: functional, organism-based
Klebsiella pneumoniae [2] = test: Antibacterial activity against ESBL-negative Klebsiella pneumoniae isolate 102 at 1 ug/ml by Etest; format: functional, organism-based
Klebsiella pneumoniae [3] = test: Antibacterial activity against ESBL-negative Klebsiella pneumoniae isolate 106 at 1 ug/ml by Etest; format: functional, organism-based
Klebsiella pneumoniae [4] = test: Antibacterial activity against ESBL-negative Klebsiella pneumoniae isolate 114 at 1 ug/ml by Etest; format: functional, organism-based
Klebsiella pneumoniae [5] = test: Antibacterial activity against ESBL-negative Klebsiella pneumoniae isolate 105 by Etest; format: functional
Klebsiella pneumoniae [6] = test: Antibacterial activity against ESBL-negative Klebsiella pneumoniae isolate M1 by Etest; format: functional
Klebsiella pneumoniae [7] = test: Antibacterial activity against ESBL-negative Klebsiella pneumoniae isolate 113 by Etest; format: functional
Klebsiella pneumoniae [8] = test: Antibacterial activity against ESBL-positive Klebsiella pneumoniae isolate 121 having upstream IS26 insertion by Etest; format: functional
Klebsiella pneumoniae [9] = test: Antibacterial activity against ESBL-positive Klebsiella pneumoniae isolate 119 having blaSHV promoter sequence with IS26 insertion by Etest; format: functional
Klebsiella pneumoniae [10] = test: Antibacterial activity against ESBL-negative Klebsiella pneumoniae isolate 30 by Etest; format: functional
Klebsiella pneumoniae [11] = test: Antibacterial activity against ESBL-negative Klebsiella pneumoniae isolate 115 by Etest; format: functional
Klebsiella pneumoniae [12] = test: Antibacterial activity against ESBL-negative Klebsiella pneumoniae isolate 85 by Etest; format: functional
Klebsiella pneumoniae [13] = test: Antibacterial activity against ESBL-negative Klebsiella pneumoniae isolate 109 by Etest; format: functional
Klebsiella pneumoniae [14] = test: Antibacterial activity against ESBL-positive Klebsiella pneumoniae isolate 120 having upstream IS26 insertion by Etest; format: functional
Klebsiella pneumoniae [15] = test: Antibacterial activity against ESBL-negative Klebsiella pneumoniae isolate 104 by Etest; format: functional
Klebsiella pneumoniae [16] = test: Antibacterial activity against ESBL-negative Klebsiella pneumoniae isolate 106 by Etest; format: functional
Klebsiella pneumoniae [17] = test: Antibacterial activity against ESBL-negative Klebsiella pneumoniae isolate 102 by Etest; format: functional
Klebsiella pneumoniae [18] = test: Antibacterial activity against ESBL-negative Klebsiella pneumoniae isolate 108 by Etest; format: functional
Klebsiella pneumoniae [19] = test: Antibacterial activity against ESBL-positive Klebsiella pneumoniae isolate 110 having upstream IS26 insertion by Etest; format: functional
Klebsiella pneumoniae [20] = test: Antibacterial activity against ESBL-positive Klebsiella pneumoniae isolate K2 having blaSHV promoter sequence with IS26 insertion by Etest; format: functional
Klebsiella pneumoniae [21] = test: Antibacterial activity against ESBL-negative Klebsiella pneumoniae isolate 107 by Etest; format: functional
Klebsiella pneumoniae [22] = test: Antibacterial activity against ESBL-negative Klebsiella pneumoniae isolate 114 by Etest; format: functional
Klebsiella pneumoniae [23] = test: Antibacterial activity against ESBL-negative Klebsiella pneumoniae isolate 116 by Etest; format: functional
Klebsiella pneumoniae [24] = test: Antibacterial activity against ESBL-positive Klebsiella pneumoniae isolate J4 having blaSHV promoter sequence with IS26 insertion by Etest; format: functional
Klebsiella pneumoniae [25] = test: Antibacterial activity against ESBL-positive Klebsiella pneumoniae isolate J5 having blaSHV promoter sequence with IS26 insertion by Etest; format: functional

For `CC(C)(O/N=C(\C(=O)N[C@@H]1C(=O)N2C(C(=O)[O-])=C(C[n+]3ccccc3)CS[C@H]12)c1csc(N)n1)C(=O)O`, the Activity (Klebsiella pneumoniae [1]) was “Active”, the Activity (Klebsiella pneumoniae [2]) was “Active” and the Activity (Klebsiella pneumoniae [3]) was “Active”. For the same molecule, the Activity (Klebsiella pneumoniae [4]) was “Active”.

In the case of `CO/N=C(\C(=O)N[C@@H]1C(=O)N2C(C(=O)O)=C(COC(C)=O)CS[C@H]12)c1csc(N)n1` [CEFOTAXIME], the MIC (Klebsiella pneumoniae [5]) is reported as greater than 16 µg/mL, the MIC (Klebsiella pneumoniae [6]) is reported as 4 µg/mL (≈ 8.78 µM) and the MIC (Klebsiella pneumoniae [7]) is reported as greater than 16 µg/mL. It also gave an MIC (Klebsiella pneumoniae [8]) greater than 16 µg/mL, an MIC (Klebsiella pneumoniae [9]) greater than 16 µg/mL and an MIC (Klebsiella pneumoniae [10]) greater than 16 µg/mL. It also gave an MIC (Klebsiella pneumoniae [11]) of 8 µg/mL (≈ 17.6 µM), an MIC (Klebsiella pneumoniae [12]) greater than 16 µg/mL and an MIC (Klebsiella pneumoniae [13]) greater than 16 µg/mL. The MIC (Klebsiella pneumoniae [14]) was greater than 16 µg/mL, the MIC (Klebsiella pneumoniae [15]) was 3 µg/mL (≈ 6.59 µM) and the MIC (Klebsiella pneumoniae [16]) was greater than 16 µg/mL. The MIC (Klebsiella pneumoniae [17]) was 3 µg/mL (≈ 6.59 µM), the MIC (Klebsiella pneumoniae [18]) was 6 µg/mL (≈ 13.2 µM) and the MIC (Klebsiella pneumoniae [19]) was greater than 16 µg/mL. For the same molecule, the MIC (Klebsiella pneumoniae [20]) was greater than 16 µg/mL, the MIC (Klebsiella pneumoniae [21]) was 0.5 µg/mL (≈ 1.1 µM) and the MIC (Klebsiella pneumoniae [22]) was greater than 16 µg/mL. It also gave an MIC (Klebsiella pneumoniae [23]) greater than 16 µg/mL, an MIC (Klebsiella pneumoniae [24]) greater than 16 µg/mL and an MIC (Klebsiella pneumoniae [25]) greater than 16 µg/mL.
